Experiment [1] has as its target T1, CLK2 (Homo sapiens, UniProt P49760).
T1 construct: purchased DiscoverX Corp. (ScanMAX Kinase analysis panel, service)
Put plainly: ScanMAX Kinase analysis panel, CLK2. It is filed as binding. The note with it: 1 μM in DMSO; <35% considered inhibitory; read-out: percent control (% control), CLK2. As to the method: (§1) Specifically, the enzyme (kinase) selectivity of Example compounds 238, 361, 411, 157, 161, 228, and 158 selected from the Example compounds of the present invention was determined by commissioning DiscoverX Corp., and an experiment was performed using a ScanMAX™ Kinase analysis panel. In this case, a concentration of the drug with which the enzymes were treated was 1 μM in DMSO, and the percent control (% control) was defined in the same manner as in the following Expression 1.
(§2) (Example Compound−Positive Control)/(Negative Control−Positive Control)×100 [Expression 1]
(§3) wherein the positive control represents a compound having a percent control of 0%, and the negative control represents DMSO having a percent control of 100%. For the enzyme selectivity of the present invention, it was considered that the compound has an inhibitory activity on each of the enzymes when the percent control for the corresponding enzyme was <35% (i. e., less than 35%).

Experiment [2] concerns the target LRRK2 (G2019S) (Homo sapiens, UniProt Q5S007, G2019S). Put plainly: ScanMAX Kinase analysis panel, LRRK2 (G2019S). It is filed as binding. To be noted: 1 μM in DMSO; <35% considered inhibitory; read-out: percent control (% control), LRRK2 (G2019S). Details: purchased DiscoverX Corp. (ScanMAX Kinase analysis panel, service). As to the method:
as §1, §2, §3

For experiment [3], the system named is SHP-77. Put plainly: Inhibition of proliferation of SHP-77 cancer cells (Cell Titer-Glo). The experiment is classed as cell-based. The note with it: Homo sapiens, SHP77, 72 hours. The procedure, abridged: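 Growth inhibition over 72 h: cells seeded at 2,000/well and dosed at eleven 3-fold-spaced final concentrations from 10.000000 μM. Read-out is ATP luminescence (Cell Titer-Glo, 10 min, room temperature), with GI50 derived from it.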

Experiment [4] concerns the target T2, FAK (Homo sapiens, UniProt Q05397).
T2 construct: purchased DiscoverX Corp. (ScanMAX Kinase analysis panel, service)
As to the kind of experiment: ScanMAX Kinase analysis panel, FAK. To be noted: 1 μM in DMSO; <35% considered inhibitory; read-out: percent control (% control), FAK. The experiment is classed as binding. On the procedure: as §1, §2, §3

The target in experiment [5] is LRRK2 (Homo sapiens, UniProt Q5S007). Put plainly: Kinase HotSpot service (Reaction Biology Corporation), LRRK2. The experiment is classed as biochemical. Details: purchased DiscoverX Corp. (ScanMAX Kinase analysis panel, service). The note with it: ATP 10 uM, read-out: LRRK2 IC50 (values indicated by *). As to the method: (§4) The inhibitory activities of the compounds were measured at a 3-fold concentration gradient starting from a maximum compound concentration of […], and the values measured using the Kinase HotSpot service (Reaction Biology Corporation) are indicated by an asterisk (*).
LRRK2, sequence (Q5S007 whole entry): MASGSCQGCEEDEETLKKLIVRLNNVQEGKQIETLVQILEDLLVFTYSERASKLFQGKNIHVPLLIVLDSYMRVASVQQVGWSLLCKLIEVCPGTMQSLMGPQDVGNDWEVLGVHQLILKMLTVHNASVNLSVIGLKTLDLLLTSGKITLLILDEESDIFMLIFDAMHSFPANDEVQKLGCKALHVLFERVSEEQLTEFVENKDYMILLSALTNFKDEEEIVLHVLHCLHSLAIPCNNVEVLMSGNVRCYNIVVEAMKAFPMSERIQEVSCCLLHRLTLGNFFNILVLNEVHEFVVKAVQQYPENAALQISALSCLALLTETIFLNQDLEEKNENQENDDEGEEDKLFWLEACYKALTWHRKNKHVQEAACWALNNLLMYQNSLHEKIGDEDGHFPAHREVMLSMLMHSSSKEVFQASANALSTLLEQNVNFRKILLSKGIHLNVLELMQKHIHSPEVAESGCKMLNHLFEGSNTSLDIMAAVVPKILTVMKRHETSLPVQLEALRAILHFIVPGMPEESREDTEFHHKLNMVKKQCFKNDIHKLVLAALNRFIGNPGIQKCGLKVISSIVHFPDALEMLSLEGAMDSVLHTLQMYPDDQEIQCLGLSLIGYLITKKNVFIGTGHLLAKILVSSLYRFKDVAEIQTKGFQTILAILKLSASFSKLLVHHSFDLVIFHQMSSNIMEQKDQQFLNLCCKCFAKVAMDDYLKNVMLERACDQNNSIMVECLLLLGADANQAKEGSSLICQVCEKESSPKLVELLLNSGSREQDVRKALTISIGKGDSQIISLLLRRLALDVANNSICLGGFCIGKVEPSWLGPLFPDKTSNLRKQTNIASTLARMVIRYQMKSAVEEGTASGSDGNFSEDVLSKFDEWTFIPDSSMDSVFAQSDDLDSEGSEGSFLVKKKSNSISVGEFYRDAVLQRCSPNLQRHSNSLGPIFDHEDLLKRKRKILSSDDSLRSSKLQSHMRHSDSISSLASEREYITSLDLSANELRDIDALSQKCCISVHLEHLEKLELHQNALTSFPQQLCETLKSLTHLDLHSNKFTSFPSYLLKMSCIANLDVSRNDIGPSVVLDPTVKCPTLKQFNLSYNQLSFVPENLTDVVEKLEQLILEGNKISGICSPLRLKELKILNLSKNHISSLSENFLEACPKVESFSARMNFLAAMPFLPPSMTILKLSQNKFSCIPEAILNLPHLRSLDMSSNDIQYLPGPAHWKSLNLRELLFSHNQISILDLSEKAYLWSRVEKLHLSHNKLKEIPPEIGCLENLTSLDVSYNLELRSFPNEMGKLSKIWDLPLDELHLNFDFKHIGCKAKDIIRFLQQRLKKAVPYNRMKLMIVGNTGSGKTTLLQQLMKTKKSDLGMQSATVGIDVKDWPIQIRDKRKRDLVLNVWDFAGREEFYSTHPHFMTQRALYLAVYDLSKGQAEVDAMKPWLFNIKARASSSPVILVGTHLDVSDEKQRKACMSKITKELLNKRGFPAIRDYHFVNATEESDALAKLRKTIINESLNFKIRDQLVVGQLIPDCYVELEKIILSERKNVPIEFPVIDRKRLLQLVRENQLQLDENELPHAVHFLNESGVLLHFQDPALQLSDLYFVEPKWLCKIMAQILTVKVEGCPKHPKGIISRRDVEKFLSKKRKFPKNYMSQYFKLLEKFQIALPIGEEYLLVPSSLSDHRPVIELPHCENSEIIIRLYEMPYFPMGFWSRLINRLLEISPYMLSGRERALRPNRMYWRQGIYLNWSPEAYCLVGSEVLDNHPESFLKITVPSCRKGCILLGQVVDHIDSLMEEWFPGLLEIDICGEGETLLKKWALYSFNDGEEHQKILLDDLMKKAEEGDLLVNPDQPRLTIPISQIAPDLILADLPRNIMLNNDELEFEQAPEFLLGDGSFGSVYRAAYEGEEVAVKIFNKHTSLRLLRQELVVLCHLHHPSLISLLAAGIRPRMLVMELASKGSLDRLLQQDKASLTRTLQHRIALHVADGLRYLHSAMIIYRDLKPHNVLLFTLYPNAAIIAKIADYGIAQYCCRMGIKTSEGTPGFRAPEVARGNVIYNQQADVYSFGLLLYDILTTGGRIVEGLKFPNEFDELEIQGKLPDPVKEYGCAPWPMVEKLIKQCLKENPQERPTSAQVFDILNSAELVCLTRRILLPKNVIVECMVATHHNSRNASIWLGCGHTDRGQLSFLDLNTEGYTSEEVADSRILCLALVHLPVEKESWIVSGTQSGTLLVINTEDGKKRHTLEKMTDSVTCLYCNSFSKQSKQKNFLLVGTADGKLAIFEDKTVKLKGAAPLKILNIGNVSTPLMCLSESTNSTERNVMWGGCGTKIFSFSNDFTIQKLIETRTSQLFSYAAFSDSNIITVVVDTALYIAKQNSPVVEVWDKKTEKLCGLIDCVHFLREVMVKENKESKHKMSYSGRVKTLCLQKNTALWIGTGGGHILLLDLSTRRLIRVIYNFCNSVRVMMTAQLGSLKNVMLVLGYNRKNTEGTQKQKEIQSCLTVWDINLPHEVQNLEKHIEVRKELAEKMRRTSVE
(§5) All the experimental methods were performed as provided by the Kinase HotSpot Customer Protocol (http://www.reactionbiology.com//Kinase_Assay_Protocol).

Experiment [6] has as its target T3, DYRK2 (Homo sapiens, UniProt Q92630).
T3 construct: purchased DiscoverX Corp. (ScanMAX Kinase analysis panel, service)
T3 sequence (Q92630 1-601): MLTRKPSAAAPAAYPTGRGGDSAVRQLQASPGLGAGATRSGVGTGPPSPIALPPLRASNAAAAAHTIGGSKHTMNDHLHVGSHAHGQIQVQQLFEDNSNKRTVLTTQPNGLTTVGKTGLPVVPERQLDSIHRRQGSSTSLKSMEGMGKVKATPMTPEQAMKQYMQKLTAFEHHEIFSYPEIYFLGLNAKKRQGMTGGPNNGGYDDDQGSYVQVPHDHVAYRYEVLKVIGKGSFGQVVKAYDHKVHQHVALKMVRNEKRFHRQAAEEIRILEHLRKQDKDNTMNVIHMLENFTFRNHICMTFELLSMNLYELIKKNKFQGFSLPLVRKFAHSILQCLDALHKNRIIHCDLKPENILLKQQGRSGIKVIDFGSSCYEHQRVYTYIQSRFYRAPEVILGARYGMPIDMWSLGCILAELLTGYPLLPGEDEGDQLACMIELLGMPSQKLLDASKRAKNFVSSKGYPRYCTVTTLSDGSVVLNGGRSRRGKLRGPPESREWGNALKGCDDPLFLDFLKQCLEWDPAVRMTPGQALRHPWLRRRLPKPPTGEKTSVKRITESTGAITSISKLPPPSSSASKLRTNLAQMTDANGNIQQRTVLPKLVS
Put plainly: ScanMAX Kinase analysis panel, DYRK2. The experiment is classed as binding. The note with it: 1 μM in DMSO; <35% considered inhibitory; read-out: percent control (% control), DYRK2. As to the method: as §1, §2, §3

The target in experiment [7] is T4, PHKG1 (Homo sapiens, UniProt Q16816).
T4 construct: purchased DiscoverX Corp. (ScanMAX Kinase analysis panel, service)
T4 sequence (Q16816 whole entry): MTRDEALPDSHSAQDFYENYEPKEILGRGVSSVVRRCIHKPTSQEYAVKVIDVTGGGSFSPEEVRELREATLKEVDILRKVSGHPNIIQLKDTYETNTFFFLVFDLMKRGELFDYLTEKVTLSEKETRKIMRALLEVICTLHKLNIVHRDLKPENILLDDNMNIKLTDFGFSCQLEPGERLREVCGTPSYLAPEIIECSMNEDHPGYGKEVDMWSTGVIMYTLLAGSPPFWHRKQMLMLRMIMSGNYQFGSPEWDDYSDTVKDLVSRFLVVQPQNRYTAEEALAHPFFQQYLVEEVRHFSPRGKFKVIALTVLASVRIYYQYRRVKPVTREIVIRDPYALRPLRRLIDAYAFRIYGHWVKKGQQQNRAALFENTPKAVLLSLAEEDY
As to the kind of experiment: ScanMAX Kinase analysis panel, PHKG1. The experiment is classed as binding. To be noted: 1 μM in DMSO; <35% considered inhibitory; read-out: percent control (% control), PHKG1. As to the method: as §1, §2, §3

For experiment [8], the target named is T5, CLK1 (Homo sapiens, UniProt P49759).
T5 construct: purchased DiscoverX Corp. (ScanMAX Kinase analysis panel, service)
T5 sequence (P49759 whole entry): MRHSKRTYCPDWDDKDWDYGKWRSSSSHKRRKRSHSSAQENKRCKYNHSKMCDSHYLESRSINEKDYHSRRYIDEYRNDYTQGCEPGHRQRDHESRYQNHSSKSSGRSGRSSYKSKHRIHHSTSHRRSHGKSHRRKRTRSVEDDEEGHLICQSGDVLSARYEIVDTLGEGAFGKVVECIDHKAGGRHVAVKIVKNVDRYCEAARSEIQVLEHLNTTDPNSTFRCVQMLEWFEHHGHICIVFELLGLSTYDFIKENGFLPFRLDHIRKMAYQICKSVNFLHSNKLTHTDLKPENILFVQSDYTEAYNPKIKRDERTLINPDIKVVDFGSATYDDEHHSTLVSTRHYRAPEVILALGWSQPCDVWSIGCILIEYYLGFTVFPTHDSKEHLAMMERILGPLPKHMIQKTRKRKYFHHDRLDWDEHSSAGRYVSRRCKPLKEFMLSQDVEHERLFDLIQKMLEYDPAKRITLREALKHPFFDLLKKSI
As to the kind of experiment: Kinase HotSpot service (Reaction Biology Corporation), CLK1. The experiment is classed as biochemical. The note with it: ATP 10 uM, read-out: CLK1 IC50 (values indicated by *). On the procedure: as §4, §5

The test system of experiment [9] is THP-1 cells. As to the kind of experiment: THP-1 GI50 (Table 4, cytokine secretion experiment). The experiment is classed as cell-based. The note with it: Homo sapiens.

LRRK2 (G2019S), sequence (Q5S007 whole entry G2019S): as the sequence (Q5S007 whole entry) above, with G2019S counted along it
T2 sequence (Q05397 whole entry): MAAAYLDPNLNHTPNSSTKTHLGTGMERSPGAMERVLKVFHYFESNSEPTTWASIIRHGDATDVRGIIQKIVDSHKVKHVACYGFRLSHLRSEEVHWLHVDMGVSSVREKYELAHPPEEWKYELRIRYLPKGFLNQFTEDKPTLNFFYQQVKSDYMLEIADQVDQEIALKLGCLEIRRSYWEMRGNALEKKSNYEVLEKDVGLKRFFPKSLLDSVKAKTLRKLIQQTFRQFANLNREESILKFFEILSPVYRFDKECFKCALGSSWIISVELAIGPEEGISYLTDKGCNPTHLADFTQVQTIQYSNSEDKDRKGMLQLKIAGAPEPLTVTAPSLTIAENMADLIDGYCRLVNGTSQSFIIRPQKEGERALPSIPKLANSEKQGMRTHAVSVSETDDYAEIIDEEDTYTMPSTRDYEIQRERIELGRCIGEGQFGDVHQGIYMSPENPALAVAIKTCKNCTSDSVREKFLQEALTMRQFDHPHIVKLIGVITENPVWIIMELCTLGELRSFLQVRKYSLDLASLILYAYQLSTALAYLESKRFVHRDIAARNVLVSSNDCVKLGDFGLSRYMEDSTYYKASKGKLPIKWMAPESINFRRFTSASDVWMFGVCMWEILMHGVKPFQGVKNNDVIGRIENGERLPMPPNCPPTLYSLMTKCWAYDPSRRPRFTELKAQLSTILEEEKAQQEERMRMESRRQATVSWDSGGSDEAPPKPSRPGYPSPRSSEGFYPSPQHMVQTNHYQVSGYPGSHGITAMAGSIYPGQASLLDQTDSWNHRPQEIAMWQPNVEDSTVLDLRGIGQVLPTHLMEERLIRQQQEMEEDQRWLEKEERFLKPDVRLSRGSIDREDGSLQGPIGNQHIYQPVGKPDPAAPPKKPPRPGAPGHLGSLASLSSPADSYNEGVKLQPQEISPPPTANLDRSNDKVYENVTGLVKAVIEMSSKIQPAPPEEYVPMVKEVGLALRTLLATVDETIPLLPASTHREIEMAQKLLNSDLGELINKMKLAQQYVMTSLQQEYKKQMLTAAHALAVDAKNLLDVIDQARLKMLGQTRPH
T1 sequence (P49760 whole entry): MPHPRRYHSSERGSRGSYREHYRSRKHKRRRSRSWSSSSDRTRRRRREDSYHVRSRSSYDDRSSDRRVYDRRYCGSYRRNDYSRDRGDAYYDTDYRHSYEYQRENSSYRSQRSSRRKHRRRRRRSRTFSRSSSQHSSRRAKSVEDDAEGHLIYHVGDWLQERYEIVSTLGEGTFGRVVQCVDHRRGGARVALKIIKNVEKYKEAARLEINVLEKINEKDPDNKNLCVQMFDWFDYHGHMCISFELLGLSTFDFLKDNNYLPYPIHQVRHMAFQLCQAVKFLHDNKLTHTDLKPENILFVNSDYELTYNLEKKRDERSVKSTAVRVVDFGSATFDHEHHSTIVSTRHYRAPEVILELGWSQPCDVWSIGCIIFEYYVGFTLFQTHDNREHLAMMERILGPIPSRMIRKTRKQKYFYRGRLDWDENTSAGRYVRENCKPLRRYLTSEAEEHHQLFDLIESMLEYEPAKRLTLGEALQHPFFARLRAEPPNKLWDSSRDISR

Consider `CNc1nc(Nc2ccc(S(=O)(=O)N3CCC(N4CCOCC4)CC3)cc2OC)nc2[nH]cc(C(F)(F)F)c12` [Example 157, N^2-(2-methoxy-4-((4-morpholinopiperidin-1-yl)sulfonyl)phenyl)-N^4-methyl-5-(trifluoromethyl)-7H-pyrrolo[2,3-d]pyrimidine-2,4-diamine 2,2,2-trifluoroacetate], for which the remaining binding at 1 µM turned out to be 2.9% in [1]; 1.6% in [2]; 0.85% in experiment [4]; 7% in experiment [6]; 7.8% in experiment [7]. Besides, the GI50 in experiment [3] was in the range of 301 to 1000 nM. The IC50 in experiment [5] was below 100 nM.
For `CCNc1nc(Nc2ccc(S(=O)(=O)N3CCC(N4CCOCC4)CC3)cc2OC)nc2[nH]cc(C(F)(F)F)c12` [Example 158, N^4-ethyl-N^2-(2-methoxy-4-((4-morpholinopiperidin-1-yl)sulfonyl)phenyl)-5-(trifluoromethyl)-7H-pyrrolo[2,3-d]pyrimidine-2,4-diamine 2,2,2-trifluoroacetate], the remaining binding at 1 µM in [1] turned out to be 22%; in [2], 3.6%; in experiment [4] it was 1.1%; in [6] it was 25%; in [7] it was 25%. The compound also gave a GI50 in [3] of 51 to 100 nM.
As for `CCCNc1nc(Nc2ccc(S(=O)(=O)N3CCC(N4CCOCC4)CC3)cc2OC)nc2[nH]cc(C(F)(F)F)c12` [Example 161, N^2-(2-methoxy-4-((4-morpholinopiperidin-1-yl)sulfonyl)phenyl)-N^4-propyl-5-(trifluoromethyl)-7H-pyrrolo[2,3-d]pyrimidine-2,4-diamine], the remaining binding at 1 µM worked out at 3.9% in experiment [1]; 0% in experiment [2]; 2.3% in experiment [4]; 33% in experiment [6]; 24% in experiment [7]. In addition, the GI50 in experiment [3] lay within 301 to 1000 nM. In addition, the IC50 in experiment [8] was below 100 nM.
As to `O=C(c1ccc(Nc2nc(C3CC3)c3c(C(F)(F)F)c[nH]c3n2)c2c1OCCO2)N1CCC(N2CCOCC2)CC1` [Example 228, (8-((4-cyclopropyl-5-(trifluoromethyl)-7H-pyrrolo[2,3-d]pyrimidin-2-yl)amino)-2,3-dihydrobenzo[b][1,4]dioxin-5-yl)(4-morpholinopiperidin-1-yl)methanone], the remaining binding at 1 µM in experiment [1] turned out to be 5.5%; in experiment [2], 1.1%; in experiment [4] it was 24%; in [6], 16%; in [7] it was 30%.
For `CNc1nc(Nc2ccc(C(=O)N3CCC(N4CCOCC4)CC3)c3c2OCCO3)nc2[nH]cc(C(F)(F)F)c12` [Example 238, (8-((4-(methylamino)-5-(trifluoromethyl)-7H-pyrrolo[2,3-d]pyrimidin-2-yl)amino)-2,3-dihydrobenzo[b][1,4]dioxin-5-yl)(4-morpholinopiperidin-1-yl)methanone], the remaining binding at 1 µM in experiment [1] turned out to be 0.65%; in [2], 0.05%; in experiment [4], 7.8%; in experiment [6] it was 19%; in experiment [7], 3.6%.
`COCCNc1nc(Nc2ccc(C(=O)N3CCC(N4CCOCC4)CC3)c3c2OCC3)nc2[nH]cc(C#N)c12` [Example 359, 4-((2-methoxy-ethyl)ami-no)-2-((4-(4-morpholino-piperidine-1-carbonyl)-2,3-dihydro-benzofuran-7-yl)amino)-7H-pyrrolo[2,3-d]pyrimidine-5-carbonitrile] gave a GI50 in experiment [9] of 13600 nM.
For the compound `C=CCNc1nc(Nc2ccc(S(=O)(=O)N3CCC(N4CCOCC4)CC3)cc2OC)nc2[nH]cc(C#N)c12` [Example 361, 4-(allylamino)-2-((2-methoxy-4-((4-morpholino-piperidin-1-yl)sulfonyl)phenyl)amino)-7H-pyrrolo[2,3-d]pyrimidine-5-carbonitrile], the remaining binding at 1 µM in experiment [1] was 3.9%; in [2] it was 0%; in experiment [4], 0.75%; in experiment [6] it was 10%; in [7], 9.7%.
Compound `COCCNc1nc(Nc2ccc(C(=O)N3CCN(C4COC4)CC3)c3c2OCCO3)nc2[nH]cc(C(F)(F)F)c12` [Example 403, (8-((4-((2-methoxyethyl)-amino)-5-(trifluoromethyl)-7H-pyrrolo[2,3-d]pyrimidin-2-yl)amino)-2,3-dihydrobenzo[b] [1,4]dioxin-5-yl) (4-(oxetan-3-yl)piperazin-1-yl)methanone] came in with a 50% growth inhibitory concentration (GI50) in experiment [9] of 40400 nM.
In the case of `CNc1nc(Nc2ccc(P3(=O)CCN(C4CC4)CC3)cc2OC)nc2[nH]cc(C(F)(F)F)c12` [Example 411, 1-cyclopropyl-4-(3-methoxy-4-((4-(methylamino)-5-(trifluoromethyl)-7H-pyrrolo[2,3-d]pyrimidin-2-yl)amino)phenyl)-1,4-azaphosphinane-4-oxide], the remaining binding at 1 µM in [1] is 0%; in experiment [2] it was 1.3%; in experiment [4], 10%; in experiment [6] it was 28%; in [7], 17%.
Compound `O=C(c1ccc(Nc2nc(NC3CCCC3)c3c(C(F)(F)F)c[nH]c3n2)c2c1OCCO2)N1CCN(C2COC2)CC1` [Example 414, (8-((4-(cyclopentyl-amino)-5-(trifluoromethyl)-7H-pyrrolo[2,3-d]pyrimidin-2-yl)amino)-2,3-dihydrobenzo[b] [1,4]dioxin-5-yl) (4-(oxetan-3-yl)piperazin-1-yl)methanone] registered a GI50 in experiment [9] of 4160 nM. This counts as single-digit micromolar.
On to `COc1cc(S(=O)(=O)N2CCC(N3C[C@H]4C[C@@H]3CO4)CC2)ccc1Nc1nc(C2CC2)c2c(C(F)(F)F)c[nH]c2n1` [Example 473, N-(4-((4-((1R,4R)-2-oxa-5-azabicyclo[2.2.1]heptan-5-yl)piperidin-1-yl)sulfonyl)-2-methoxyphenyl)-4-cyclopropyl-5-(trifluoromethyl)-7H-pyrrolo[2,3-d]pyrimidin-2-amine], for which the IC50 in [8] and in experiment [5] was below 100 nM throughout.

As usually defined, the GI50 is the concentration that inhibits growth by half. A high value points to lower sensitivity of the cells. By IC50 is commonly meant the point on the concentration scale where inhibition reaches its midpoint.

The record behind these values is US20230066011A1, “PYRROLOPYRIMIDINE DERIVATIVE, AND PHARMACEUTICAL COMPOSITION FOR PREVENTING OR TREATING PROTEIN KINASE-RELATED DISEASE COMPRISING SAME AS ACTIVE INGREDIENT” (VORONOI CO., LTD., priority 2019, published 2023).
